# Laboratory results as given in the NIST ThermoML archive (doi:10.1021/je1003065).
# ± gives the expanded uncertainty stated by the source.
# Experiment: mn = molality of the nth substance listed, in mol/kg
# Settings: Liquid, Vibrating tube method
smiles,measurement,setting,value
[Br-].[Li+] [lithium bromide] + CCO,mass density,"333.09 K, 10272 kPa, m1 = 2.272",902.05 ± 1.8 kg/m3
same,mass density,"333.1 K, 20223 kPa, m1 = 1.462",864.16 ± 1.7 kg/m3
same,mass density,"333.11 K, 2291 kPa, m1 = 1.462",848.63 ± 1.7 kg/m3
same,mass density,"333.11 K, 9932 kPa, m1 = 1.462",855.51 ± 1.7 kg/m3
same,mass density,"333.11 K, 29979 kPa, m1 = 1.462",871.75 ± 1.8 kg/m3
same,mass density,"333.12 K, 5163 kPa, m1 = 1.462",851.27 ± 1.7 kg/m3
same,mass density,"333.12 K, 39966 kPa, m1 = 1.462",878.97 ± 1.8 kg/m3
same,mass density,"333.12 K, 49993 kPa, m1 = 1.462",885.74 ± 1.8 kg/m3
same,mass density,"333.12 K, 59791 kPa, m1 = 1.462",891.94 ± 1.8 kg/m3
same,mass density,"333.12 K, 69993 kPa, m1 = 1.462",898.03 ± 1.8 kg/m3
same,mass density,"333.12 K, 79815 kPa, m1 = 1.462",903.61 ± 1.9 kg/m3
same,mass density,"333.12 K, 89925 kPa, m1 = 1.462",909.13 ± 1.9 kg/m3
same,mass density,"333.12 K, 100027 kPa, m1 = 1.462",914.48 ± 1.9 kg/m3
same,mass density,"333.13 K, 2335 kPa, m1 = 2.272",895.03 ± 1.8 kg/m3
same,mass density,"333.13 K, 10112 kPa, m1 = 0.5972",803.35 ± 1.6 kg/m3
same,mass density,"333.13 K, 79924 kPa, m1 = 0.2335",831.2 ± 1.8 kg/m3
same,mass density,"333.14 K, 1023 kPa, m1 = 0.2335",771.66 ± 1.6 kg/m3
same,mass density,"333.14 K, 1618 kPa, m1 = 3.368",952.85 ± 1.9 kg/m3
same,mass density,"333.14 K, 5026 kPa, m1 = 2.833",927.9 ± 1.9 kg/m3
same,mass density,"333.14 K, 19985 kPa, m1 = 0.2335",789.05 ± 1.6 kg/m3
same,mass density,"333.14 K, 40021 kPa, m1 = 2.833",953.59 ± 1.9 kg/m3
same,mass density,"333.14 K, 80002 kPa, m1 = 2.833",976.7 ± 2 kg/m3
same,mass density,"333.15 K, 1032 kPa, m1 = 2.833",924.49 ± 1.9 kg/m3
same,mass density,"333.15 K, 1267 kPa, m1 = 0.9499",816.76 ± 1.6 kg/m3
same,mass density,"333.15 K, 1305 kPa, m1 = 0.9499",816.8 ± 1.6 kg/m3
same,mass density,"333.15 K, 2100 kPa, m1 = 0.5972",796.01 ± 1.6 kg/m3
same,mass density,"333.15 K, 5177 kPa, m1 = 2.272",897.13 ± 1.8 kg/m3
same,mass density,"333.15 K, 5214 kPa, m1 = 0.9499",820.56 ± 1.6 kg/m3
same,mass density,"333.15 K, 5223 kPa, m1 = 0.5972",798.91 ± 1.6 kg/m3
same,mass density,"333.15 K, 9985 kPa, m1 = 2.833",931.98 ± 1.9 kg/m3
same,mass density,"333.15 K, 10026 kPa, m1 = 0.2335",780.15 ± 1.6 kg/m3
same,mass density,"333.15 K, 19923 kPa, m1 = 0.9499",833.66 ± 1.7 kg/m3
same,mass density,"333.15 K, 29942 kPa, m1 = 0.9499",841.73 ± 1.7 kg/m3
same,mass density,"333.15 K, 29965 kPa, m1 = 2.833",946.88 ± 1.9 kg/m3
same,mass density,"333.15 K, 40014 kPa, m1 = 0.9499",849.24 ± 1.7 kg/m3
same,mass density,"333.15 K, 49925 kPa, m1 = 2.833",959.77 ± 1.9 kg/m3
same,mass density,"333.15 K, 50021 kPa, m1 = 0.2335",812.76 ± 1.7 kg/m3
same,mass density,"333.15 K, 50078 kPa, m1 = 0.9499",856.2 ± 1.8 kg/m3
same,mass density,"333.15 K, 59924 kPa, m1 = 0.9499",862.57 ± 1.8 kg/m3
same,mass density,"333.15 K, 60012 kPa, m1 = 0.2335",819.01 ± 1.7 kg/m3
same,mass density,"333.15 K, 60159 kPa, m1 = 0.5972",841.68 ± 1.7 kg/m3
same,mass density,"333.15 K, 69784 kPa, m1 = 2.833",971.18 ± 1.9 kg/m3
same,mass density,"333.15 K, 69794 kPa, m1 = 0.9499",868.58 ± 1.8 kg/m3
same,mass density,"333.15 K, 69985 kPa, m1 = 0.2335",825.32 ± 1.7 kg/m3
same,mass density,"333.15 K, 79935 kPa, m1 = 0.9499",874.45 ± 1.8 kg/m3
same,mass density,"333.15 K, 89956 kPa, m1 = 2.833",981.93 ± 2 kg/m3
same,mass density,"333.15 K, 89965 kPa, m1 = 0.2335",837.01 ± 1.8 kg/m3
same,mass density,"333.15 K, 89984 kPa, m1 = 0.9499",880.02 ± 1.8 kg/m3
same,mass density,"333.15 K, 99907 kPa, m1 = 2.272",958.17 ± 1.9 kg/m3
same,mass density,"333.15 K, 99958 kPa, m1 = 0.2335",842.17 ± 1.8 kg/m3
same,mass density,"333.15 K, 99967 kPa, m1 = 2.833",987.14 ± 2 kg/m3
same,mass density,"333.15 K, 99986 kPa, m1 = 0.9499",885.41 ± 1.9 kg/m3
same,mass density,"333.16 K, 5021 kPa, m1 = 0.2335",775.49 ± 1.6 kg/m3
same,mass density,"333.16 K, 19968 kPa, m1 = 2.833",939.71 ± 1.9 kg/m3
same,mass density,"333.16 K, 20295 kPa, m1 = 0.5972",812.23 ± 1.6 kg/m3
same,mass density,"333.16 K, 29945 kPa, m1 = 0.2335",797.44 ± 1.6 kg/m3
same,mass density,"333.16 K, 29996 kPa, m1 = 0.5972",820.22 ± 1.7 kg/m3
same,mass density,"333.16 K, 49994 kPa, m1 = 0.5972",835.21 ± 1.7 kg/m3
same,mass density,"333.16 K, 59945 kPa, m1 = 2.833",965.67 ± 1.9 kg/m3
same,mass density,"333.16 K, 69994 kPa, m1 = 0.5972",847.73 ± 1.8 kg/m3
same,mass density,"333.16 K, 80063 kPa, m1 = 0.5972",854.04 ± 1.8 kg/m3
same,mass density,"333.16 K, 89993 kPa, m1 = 0.5972",859.28 ± 1.8 kg/m3
same,mass density,"333.16 K, 100035 kPa, m1 = 0.5972",864.08 ± 1.8 kg/m3
same,mass density,"333.17 K, 39784 kPa, m1 = 0.2335",805.21 ± 1.7 kg/m3
same,mass density,"333.17 K, 40191 kPa, m1 = 0.5972",828.11 ± 1.7 kg/m3
same,mass density,"333.17 K, 89994 kPa, m1 = 2.272",952.98 ± 1.9 kg/m3
same,mass density,"333.17 K, 99575 kPa, m1 = 3.368",1013.64 ± 2.1 kg/m3
same,mass density,"333.18 K, 19918 kPa, m1 = 3.368",967.06 ± 1.9 kg/m3
same,mass density,"333.18 K, 20737 kPa, m1 = 2.272",910.39 ± 1.8 kg/m3
same,mass density,"333.18 K, 29946 kPa, m1 = 3.368",974.09 ± 1.9 kg/m3
same,mass density,"333.18 K, 29993 kPa, m1 = 2.272",917.22 ± 1.8 kg/m3
same,mass density,"333.18 K, 39652 kPa, m1 = 3.368",980.47 ± 2 kg/m3
same,mass density,"333.18 K, 40158 kPa, m1 = 2.272",924.19 ± 1.9 kg/m3
same,mass density,"333.18 K, 49954 kPa, m1 = 2.272",930.45 ± 1.9 kg/m3
same,mass density,"333.18 K, 49993 kPa, m1 = 3.368",986.85 ± 2 kg/m3
same,mass density,"333.18 K, 59593 kPa, m1 = 3.368",992.46 ± 2 kg/m3
same,mass density,"333.18 K, 60271 kPa, m1 = 2.272",936.65 ± 1.9 kg/m3
same,mass density,"333.18 K, 69927 kPa, m1 = 3.368",998.21 ± 2 kg/m3
same,mass density,"333.18 K, 69979 kPa, m1 = 2.272",942.19 ± 1.9 kg/m3
same,mass density,"333.18 K, 79359 kPa, m1 = 2.272",947.33 ± 1.9 kg/m3
same,mass density,"333.18 K, 79861 kPa, m1 = 3.368",1003.51 ± 2 kg/m3
same,mass density,"333.18 K, 89946 kPa, m1 = 3.368",1008.74 ± 2 kg/m3
same,mass density,"333.19 K, 5051 kPa, m1 = 3.368",955.66 ± 1.9 kg/m3
same,mass density,"333.19 K, 9894 kPa, m1 = 3.368",959.51 ± 1.9 kg/m3
same,mass density,"348.13 K, 29954 kPa, m1 = 0.2335",785.62 ± 1.6 kg/m3
same,mass density,"348.13 K, 59964 kPa, m1 = 2.833",956.11 ± 1.9 kg/m3
same,mass density,"348.14 K, 9989 kPa, m1 = 2.833",920.29 ± 1.8 kg/m3
same,mass density,"348.14 K, 10032 kPa, m1 = 0.2335",766.83 ± 1.6 kg/m3
same,mass density,"348.14 K, 10035 kPa, m1 = 0.5972",790.37 ± 1.6 kg/m3
same,mass density,"348.14 K, 19956 kPa, m1 = 2.272",898.47 ± 1.8 kg/m3
same,mass density,"348.14 K, 19956 kPa, m1 = 3.368",955.83 ± 1.9 kg/m3
same,mass density,"348.14 K, 29914 kPa, m1 = 0.5972",809.07 ± 1.6 kg/m3
same,mass density,"348.14 K, 30021 kPa, m1 = 1.462",860.82 ± 1.7 kg/m3
same,mass density,"348.14 K, 39925 kPa, m1 = 2.272",913.47 ± 1.8 kg/m3
same,mass density,"348.14 K, 50012 kPa, m1 = 0.5972",824.77 ± 1.7 kg/m3
same,mass density,"348.14 K, 69957 kPa, m1 = 3.368",988.75 ± 2 kg/m3
same,mass density,"348.14 K, 79624 kPa, m1 = 2.272",938.32 ± 1.9 kg/m3
same,mass density,"348.14 K, 89957 kPa, m1 = 0.5972",850.38 ± 1.8 kg/m3
same,mass density,"348.15 K, 1002 kPa, m1 = 0.5972",781.38 ± 1.6 kg/m3
same,mass density,"348.15 K, 1002 kPa, m1 = 3.368",940.13 ± 1.9 kg/m3
same,mass density,"348.15 K, 1003 kPa, m1 = 2.272",881.25 ± 1.8 kg/m3
same,mass density,"348.15 K, 1024 kPa, m1 = 0.2335",757.55 ± 1.5 kg/m3
same,mass density,"348.15 K, 1035 kPa, m1 = 2.833",912.41 ± 1.8 kg/m3
same,mass density,"348.15 K, 1304 kPa, m1 = 0.9499",803.97 ± 1.6 kg/m3
same,mass density,"348.15 K, 2021 kPa, m1 = 1.462",835.77 ± 1.7 kg/m3
